Experimental data from paper PMC13313556, “Development and characterization of triazole-based WDR5 inhibitors for the treatment of glioblastoma” (JCI Insight, 2026).
Where two headings read alike, the source gives them in different places.

Key:
[1] = system: L2 CSCs; test: 7-day CTG viability assay (GI50, cross-titrations, irradiation) in L2; assay type: cell-based, human; conditions: for GI50: Homo sapiens
Description: (§1) For GI50 determination, compounds were stamped in technical triplicate, while for synergy cross-titrations dose-response matrices were prepared in technical duplicate. Different CSC lines, grown in suspension as spheroids, were split with Accutase and seeded directly on top of the prestamped compounds (50 μL of NBMc and 700 cells/well). The outer 4 rows (A,B and O,P row IDs) and 4 columns (1,2 and 23,24 column IDs) were filled with 80 μL of PBS to minimize evaporation. Cells were incubated with compounds for 7 days at 37°C/5% CO2 prior to the addition of 25 μL/well Cell-Titer Glo (Promega) and luminescence quantification on a Revvity EnVision plate reader. […] For the cross-titrations of 2 compounds, synergy scores were calculated using the MuSyC webserver ([79]). […]
(§2) antagonist (p53 activator) RG7112 following either 0 Gy or 2 Gy irradiation. Mean values are presented from a single biological replicate conducted in technical triplicate. Follow- […]
(§3) Cell viability was quantified as described in the Materials and Methods four days post-irradiation (seven days total). The

[2] = Microsomal intrinsic clearance, rat; assay type: in vitro ADME; conditions: for CLint scaled at 1 µM: pooled liver microsomes, rat microsomes; for Pred CLhep (r): scaled predicted hepatic clearance, rat
Description: SUPPLEMENTAL DMPK METHODS
All in vitro DMPK screening assays were performed at Q2 Solutions, Inc. (Indianapolis,
IN, USA). Microsomal Intrinsic Clearance: Test compounds (1 µM) were incubated
with 1 mg/mL of pooled liver microsomes in phosphate buffer at 37 °C. Samples were
taken at 0, 5, 10, 15, 30 and 45 min and analyzed by LC-MS. Testosterone was used as
the positive control. Two replicates were obtained and average CLint values are reported. […]

[3] = system: 3832 CSCs; test: 7-day CTG viability assay (GI50, cross-titrations, irradiation) in 3832; assay type: cell-based, human
Description: as §1, §2, §3

[4] = Plasma protein binding (equilibrium dialysis), human; assay type: in vitro ADME
Description: Plasma Protein and Brain Homogenate Binding: Plasma protein binding assays in human and rat plasma were performed using equilibrium dialysis method and a fast gradient elution LC-MS/MS to estimate the percent of compound which binds to protein over a 4.5 hour incubation period at 37 °C, while undergoing orbital shaking. Assay was performed using a HT dialysis micro equilibrium device using dialysis membrane strips. A time 0 sample was taken after protein matrix is created and samples were taken from […]
both the protein side and buffer side of the membrane after incubation and the parent compound was quantified. Brain homogenate binding was performed similarly as above using human brain homogenate, equilibrium dialysis, and LC-MS/MS methods. Fraction unbound is calculated by dividing the concentration of the buffer side by the concentration of the matrix side (plasma or brain). […]

[5] = system: DI318 CSCs; test: 7-day CTG viability assay (GI50, cross-titrations, irradiation) in DI318; assay type: cell-based; conditions: Homo sapiens
Description: as §1, §2, §3

[6] = system: L1 CSCs; test: 7-day CTG viability assay (GI50, cross-titrations, irradiation) in L1; assay type: cell-based, human; conditions: for GI50: Homo sapiens; for log(GI50): L1 + RAD (2 Gy)
Description: as §1, §2, §3

[7] = In vivo intraperitoneal plasma:brain level (PBL) studies; design: species or system mice; conditions: for Kp: male
Description: In Vivo Intraperitoneal Plasma:Brain Level (PBL) Studies
Core (RMPC) at the Vanderbilt University Medical Center (VUMC) Metabolic Physiology Shared Resource Core (MPSR). The studies were performed according to guidelines […]
approved by the Institutional Animal Care and Use Committee (IACUC) of VUMC following the guidance of the Association for Assessment and Accreditation of Laboratory Animal Care (AAALAC). Male CD-1 mice (Charles River Laboratories, Wilmington, MA) were overnight fasted on the evening prior to study. On the morning of study mice were weighed and allowed to acclimate to the room for at least 30 minutes prior to dosing.
Food was returned 3 hr after intraperitoneal dosing. At time zero IP of test article was given (20% β-HPCD, 1-10 mg/mL with addition of 1N HCl per molar equivalent of test article, N=8 mice, two per timepoint). At 0.5, 1, 3, and 6 h post-dose, mice were placed into a plane of anesthesia using Isoflurane. A terminal blood sample was collected via cardiac puncture followed by immediate euthanasia and brain collection. Brain was washed with cold PBS or Saline, blotted dry on a piece of gauze, weighed, and flash frozen in liquid nitrogen. Whole blood was centrifuged at 5000 x g for 5 minutes and plasma was removed into a fresh tube for storage. All samples were stored at -80 °C until shipment on dry ice for bioanalysis at Q2 Solutions. […]
conducted at Medicilon Inc. DMPK (CRO, Shanghai) using a similar protocol as above using modified timepoints (5 min, 15 min, 30 min, 1, 3, and 8 h), male ICR mice, and a […]
cyclodextrin). The blood was taken via submandibular vein or other suitable vein, 0.03 mL/time point. Samples were placed in tubes containing K2-EDTA and stored on ice until centrifuged. The blood samples were centrifuged at 6800 x g for 6 minutes at 2-8°C within 1h after collection and stored frozen at -80°C. After blood sample collection, the brain was removed, rinsed with saline, dried with filter paper, placed into labeled EP tubes (1 tube/tissue/animal/time point, and frozen at -80°C prior to bioanalysis. The analytical […]
results were validated using a calibration curve to lower limit of quantification of 2 ng/mL for parent analyte with tolbutamide as an internal standard. […]

[8] = system: L0 CSCs; test: 7-day CTG viability assay (GI50, cross-titrations) in L0; assay type: cell-based; conditions: Homo sapiens; L0, 7-day CTG; pGI50 = −log10[GI50(M)]
Description: For GI50 determination, compounds were stamped in technical triplicate, while for synergy cross-titrations dose-response matrices were prepared in technical duplicate. Different CSC lines, grown in suspension as spheroids, were split with Accutase and seeded directly on top of the prestamped compounds (50 μL of NBMc and 700 cells/well). The outer 4 rows (A,B and O,P row IDs) and 4 columns (1,2 and 23,24 column IDs) were filled with 80 μL of PBS to minimize evaporation. Cells were incubated with compounds for 7 days at 37°C/5% CO2 prior to the addition of 25 μL/well Cell-Titer Glo (Promega) and luminescence quantification on a Revvity EnVision plate reader. […] For the cross-titrations of 2 compounds, synergy scores were calculated using the MuSyC webserver ([79]).

[9] = L2, 0 Gy, read-out: log(GI50) (converted)
[10] = L2, 7-day CTG, pGI50 = −log10[GI50(M)], read-out: pGI50 (converted)
[11] = Homo sapiens, 3832 + RAD (2 Gy), read-out: log(GI50) (converted)
[12] = Homo sapiens, […], 3832, 7-day CTG, pGI50 = −log10[GI50(M)], read-out: pGI50 (converted)
[13] = human plasma, read-out: PPB % fu (h)
[14] = summary of Table 1, read-out: free fraction
[15] = DI318 + RAD (2 Gy), read-out: log(GI50) (converted)
[16] = […], DI318, 7-day CTG, pGI50 = −log10[GI50(M)], read-out: pGI50 (converted)
[17] = L1, 0 Gy, read-out: log(GI50) (converted)
[18] = L1, 7-day CTG, pGI50 = −log10[GI50(M)], read-out: pGI50 (converted)
[19] = CD-1 (C3TD343), ICR (C3TD078), mouse, brain, intraperitoneal, 100 mg/kg, 100 mg/kg i.p., mice, read-out: P:B
[20] = Homo sapiens, 3832, 0 Gy, read-out: log(GI50) (converted)

| Compound | GI50 [1, 9] | GI50 [1, 10] | CLint scaled at 1 µM [2] | Pred CLhep (r) [2] | GI50 [3, 11] | GI50 [3, 12] | fraction unbound at […] [4, 13] | fraction unbound at […] [4, 14] | GI50 [5, 15] | GI50 [5, 16] | GI50 [6, 17] | GI50 [6, 18] | log(GI50) [6] | Kp [7, 19] | GI50 [8] | GI50 [3, 20] | other results |
| --- | --- | --- | --- | --- | --- | --- | --- | --- | --- | --- | --- | --- | --- | --- | --- | --- | --- |
| COc1cc(Cn2nnc3c2CCc2c(-c4cn(C)nc4C(F)(F)F)cc(Cn4ccnc4C)cc2-3)cc(OC)c1 [C3TD078] | 5.01e-06 M | 3.98e-06 M | 316 mL/min/kg | 63.1 mL/min/kg | 1.26e-06 M | 2e-06 M | 0.016 | ~0.02 | 6.31e-07 M | 2e-06 M | 5.01e-06 M | 5.01e-06 M | -5.3 M | < 0.05 | 1.26e-06 M |  |  |
| COc1cc(Cn2nnc3c2CCc2c-3cc(Cn3ccnc3C)cc2C2CC2)ccc1F [C3TD343] |  | 6.31e-06 M | 378 mL/min/kg | 64.1 mL/min/kg | 3.16e-06 M | 2.51e-06 M | 0.007 | ~0.02 | 6.31e-06 M | 5.01e-06 M | 7.94e-06 M | 8.32e-06 M | -5.1 M | 0.25 | 5.5e-06 M | 3.16e-06 M | GI50 ([1]; L2 + RAD (2 Gy), read-out: log(GI50) (converted)): 7.94e-06 M; total brain AUC ([7]; 100 mg/kg i.p., mice): 2.9 µM·h; total brain Cmax ([7]; 100 mg/kg i.p., mice): 2.4 µM; duration of brain exposure ([7]; i.p., mice): less than 4 hours |
| COc1cc(CN2CCc3c(cc(Cn4ccn(C)c4=N)cc3-c3ccc(F)cc3C)C2=O)cc(OC)c1 [C16, reference compound] | 2e-06 M | 3.98e-06 M | < 9.2 mL/min/kg | < 14.7 mL/min/kg |  |  | 0.003 |  | 7.94e-07 M | 1.58e-06 M | 1.26e-05 M | 1.26e-05 M | -4.9 M |  | 5.01e-07 M | 1e-06 M | log(GI50) ([1]; L2 + RAD (2 Gy)): -5.7 M; log(GI50) ([3]; 3832 + RAD (2 Gy)): -6.0 M; GI50 ([3]; Homo sapiens, 3832, 7-day CTG, pGI50 = −log10[GI50(M)], read-out: pGI50 (converted)): 8.32e-07 M; fraction unbound at […] ([4]; summary of Table 1, read-out: plasma protein binding): < 0.01; GI50 ([5]; DI318, 0 Gy, read-out: log(GI50) (converted)): 2e-06 M; Cmax brain ([7]; 10 mg/kg IP, male mice): 102 nM; AUC brain ([7]; 10 mg/kg IP, male mice, 6 hrs interval): 357 nM·h; Tmax ([7]; CD-1, mouse, brain, 10 mg/kg IP, male mice, read-out: Tmax brain): 30 min; Cmax ([7]; CD-1, mouse, plasma, 10 mg/kg IP, male mice): 14.2 µM; AUC ([7]; CD-1, mouse, plasma, 10 mg/kg IP, male mice, 6 hrs interval): 11.9 µM·h; Tmax ([7]; CD-1, mouse, plasma, 10 mg/kg IP, male mice, read-out: Tmax plasma): 30 min; Kp ([7]; CD-1, mouse, brain, ip, 10 mg/kg, C16 10 mg/kg IP, male mice, read-out: brain/plasma ratio P:B (AUC)): < 0.05 |
